Results on five molecules are retold here after US8680159B2, “Bradykinin 1 receptor modulating compounds” (Gruenenthal GmbH, priority 2010, dated 2014).

The structures appear in SMILES notation.

For assay [1], the target named is T1, B1R receptor of the rat (CHO K1 cells stably transfected with the B1R gene of the rat) (Rattus norvegicus, UniProt P97583).
T1 construct: expressed in transfected cells; host or cells: CHO K1 cells (Chinese hamster ovary), stably transfected
T1 sequence (P97583 1-337): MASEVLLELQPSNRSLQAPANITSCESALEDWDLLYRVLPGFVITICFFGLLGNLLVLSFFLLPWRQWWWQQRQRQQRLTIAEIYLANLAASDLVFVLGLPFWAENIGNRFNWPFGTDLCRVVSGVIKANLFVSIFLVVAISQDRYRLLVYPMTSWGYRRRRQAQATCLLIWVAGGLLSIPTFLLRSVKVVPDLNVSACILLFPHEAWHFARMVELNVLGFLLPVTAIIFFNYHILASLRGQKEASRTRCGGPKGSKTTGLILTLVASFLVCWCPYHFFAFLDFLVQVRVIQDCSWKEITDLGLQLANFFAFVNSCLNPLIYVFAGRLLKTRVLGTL
Briefly: Functional study on the bradykinin receptor 1 (B1R), Ca2+ fluorescence (Fluo-4) FLIPR/Novostar assay, rB1R cells. It counts as cell-based. The note with it: CHO-K1, 10 μM, read-out: % inhibition (rat B1R) at 10 μM. In a few lines: (§1)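 Test compounds (10 μM) were added first and the Ca2+ rise was scored as % activation against Lys-Des-Arg9-bradykinin (≥50 nM, human) or Des-Arg9-bradykinin (≥1 μM, rat). After 6-20 min, the matching agonist was given at its EC80, and % inhibition relative to maximal achievable inhibition was calculated.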

The target of assay [2] is T2, human B1R receptor (CHO K1 cells stably transfected with the human B1R gene) (Homo sapiens, UniProt P46663).
T2 construct: expressed in transfected cells; host or cells: CHO K1 cells (Chinese hamster ovary), stably transfected
T2 sequence (P46663 1-353): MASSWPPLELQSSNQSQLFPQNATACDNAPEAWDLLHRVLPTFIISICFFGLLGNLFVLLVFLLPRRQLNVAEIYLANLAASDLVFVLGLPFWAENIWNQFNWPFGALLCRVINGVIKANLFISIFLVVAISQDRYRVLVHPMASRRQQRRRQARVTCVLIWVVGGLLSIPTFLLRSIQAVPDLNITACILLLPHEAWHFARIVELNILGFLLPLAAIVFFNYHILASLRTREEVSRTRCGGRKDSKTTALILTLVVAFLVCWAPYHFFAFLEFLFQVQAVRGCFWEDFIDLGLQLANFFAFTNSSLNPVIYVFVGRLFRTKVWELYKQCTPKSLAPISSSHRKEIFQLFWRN
The assay is described as follows: Functional study on the bradykinin receptor 1 (B1R), Ca2+ fluorescence (Fluo-4) FLIPR/Novostar assay, hB1R cells. It is filed as cell-based. Conditions: CHO-K1, read-out: % inhibition (human B1R) at 10 μM. The essentials:
as §1

A word on the inhibition: it is the drop in the measured response relative to a control, in per cent. With `CN(C(=O)c1ccc2c(c1)[C@H](NC(=O)c1ccccc1Cl)CC2)C1CCN(c2ccncc2)C(=O)C1` (stereo partly drawn) [Example H-182, (3R)-3-[(2-Chloro-benzoyl)amino]-N-methyl-N-(2-oxo-1-pyridin-4-yl-piperidin-4-yl)-2,3-dihydro-1H-indene-5-carboxylic acid amide], the inhibition at 10 µM in assay [1] was determined as 59%; in assay [2], 15%.
On the same counts, the results for `CN(C(=O)c1ccc2c(c1)[C@H](NC(=O)c1ccccc1Cl)CC2)C1CCN(c2ccncc2C(F)(F)F)CC1` [Example H-183, (3R)-3-[(2-Chloro-benzoyl)amino]-N-methyl-N-[1-[3-(trifluoromethyl)-pyridin-4-yl]-piperidin-4-yl]-2,3-dihydro-1H-indene-5-carboxylic acid amide] are 101% and 93%.
For `CN(C)c1cc(C2CCC(N(C)C(=O)c3ccc4c(c3)[C@H](NC(=O)c3ccccc3Cl)CC4)CC2)ccn1` (stereo partly drawn) [Example H-184, (3R)-3-[(2-Chloro-benzoyl)amino]-N-[4-(2-dimethylamino-pyridin-4-yl)-cyclohexyl]-N-methyl-2,3-dihydro-1H-indene-5-carboxylic acid amide], in that order: 105% and 72%.
For the molecule `CN(C)c1cc(N2CCC(N(C)C(=O)c3ccc4c(c3)[C@H](N(C)C(=O)CCC3CCCC3)CC4)CC2)ccn1` [Example H-185, (3R)-3-(3-Cyclopentyl-propanoyl-methyl-amino)-N-[1-(2-dimethylamino-pyridin-4-yl)-piperidin-4-yl]-N-methyl-2,3-dihydro-1H-indene-5-carboxylic acid amide], the inhibition at 10 µM in assay [1] amounted to 105%; in assay [2], 100%.
For `CN(C)c1nccc(N2CCC(N(C)C(=O)c3ccc4c(c3)[C@H](N(C)C(=O)CCC3CCCC3)CC4)CC2)n1` [Example H-186, (3R)-3-(3-Cyclopentyl-propanoyl-methyl-amino)-N-[1-(2-dimethylamino-pyrimidin-4-yl)-piperidin-4-yl]-N-methyl-2,3-dihydro-1H-indene-5-carboxylic acid amide], in that order: 103% and 99%.
